Results from paper PMC6687188, “Novel lactate dehydrogenase inhibitors with in vivo efficacy against Cryptosporidium parvum” (PLoS Pathogens, 2019).

What follows are molecules tested against recombinant CpLDH protein (Cryptosporidium parvum, UniProt Q9GT92, F198L/K295E/R251K).
In the case of COc1ccc2cc(CN3CCC(C4CCN(Cc5ccc6cc(OC)ccc6c5)CC4)CC3)ccc2c1.Cl [NSC683792], the “MEAN CpLDH INHIBITION (%)” value was -73.55%. CCOC(=O)c1ccc(N=Cc2ccc(N(CCC#N)CCC#N)cc2)cc1 [NSC620279] was tested, and the “MEAN CpLDH INHIBITION (%)” value was -17.13%. In the case of O=C1c2ccccc2C(=O)C1C(c1ccc([N+](=O)[O-])cc1)C1C(=O)c2ccccc2C1=O [NSC643148], the “MEAN CpLDH INHIBITION (%)” value was -12.75%. In the case of Cc1cc(-c2nc3ccccc3s2)ccc1N [NSC674495], the “MEAN CpLDH INHIBITION (%)” value was -21.24%. For CC1=CC(O)C(O)C2(C)C1CC1OC(=O)C(O)C3C(C)C(O)C4(O)OCC13C42 (stereo not drawn) [NSC14974], the “MEAN CpLDH INHIBITION (%)” value was 0.167%. In the case of CO[C@@H]1C[C@@H](C[C@H]2CC[C@H](C)[C@H]([C@@H](C)C(=O)[O-])O2)O[C@]2(O[C@](C)([C@H]3CC[C@@](C)([C@@H]4O[C@@H]([C@H]5O[C@@](O)(CO)[C@H](C)C[C@@H]5C)C[C@@H]4C)O3)C[C@H]2C)[C@@H]1C.[Na+] [NSC292567], the “MEAN CpLDH INHIBITION (%)” value was -134.14%. With CC1=Nc2ccccc2/C1=C\c1c(C)[nH]c2ccccc12 [NSC76747] the “MEAN CpLDH INHIBITION (%)” value was -6.97%. In the case of CCOC(=O)C(C)NC(=O)N(C)C12CC3CC(CC(C3)C1)C2 (stereo not drawn) [NSC208913], the “MEAN CpLDH INHIBITION (%)” value was -30.10%. In the case of O=c1cc(O)ccn1[C@@H]1O[C@H](CO)[C@@H](O)[C@H]1O [NSC126849], the “MEAN CpLDH INHIBITION (%)” value was -22.36%. For N#CCCN(c1ccc(C=O)cc1)S(=O)(=O)c1ccccc1 [NSC637914], the “MEAN CpLDH INHIBITION (%)” value was -47.07%. In the case of NC(=O)N/N=C1\CC2C3CC4C2C4C13 (stereo not drawn) [NSC673912], the “MEAN CpLDH INHIBITION (%)” value was -116.36%. For Cc1ccc([S+](c2ccc(C)cc2)c2ccc(C)cc2)cc1 [NSC157930], the “MEAN CpLDH INHIBITION (%)” value was -72.47%. With O=C(O)c1ccc(NC(c2ccccc2)c2ccc3cccnc3c2O)cc1 (stereo not drawn) [NSC1011] the “MEAN CpLDH INHIBITION (%)” value was -0.99%. O=C1CC[C@H](NC(=O)Cc2ccccc2)C(=O)N1 [NSC620261] was tested, and the “MEAN CpLDH INHIBITION (%)” value was -132.95%. COCC(=O)OC1CCn2c1nc1c2C(=O)C(C)=C(NC(C)=O)C1=O (stereo not drawn) [NSC651084] was tested, and the “MEAN CpLDH INHIBITION (%)” value was -15.88%. With O=C(O)c1cc(CCc2cc(O)ccc2O)ccc1O [NSC655255] the “MEAN CpLDH INHIBITION (%)” value was -35.82%. With CSc1ccc(NC(=O)CCl)cc1 [NSC166464] the “MEAN CpLDH INHIBITION (%)” value was -7.16%. For CC[C@@]1(O)C[C@H](O[C@H]2C[C@H](N(C)C)[C@H](O)[C@H](C)O2)c2c(O)c3c(c(O)c2[C@H]1O[C@H]1C[C@H](N(C)C)[C@H](O)[C@H](C)O1)C(=O)c1cccc(O)c1C3=O [NSC136044], the “MEAN CpLDH INHIBITION (%)” value was -159.43%. Cc1nc2c(nc1C)C(=O)c1ccccc1C2=O [NSC602617] was tested, and the “MEAN CpLDH INHIBITION (%)” value was -40.33%. For O/N=C(/CC(O)(C(F)(F)F)C(F)(F)F)c1cccc(Cl)c1 [NSC664329], the “MEAN CpLDH INHIBITION (%)” value was -28.29%. With COc1cc2c(cc1O)N=CC1CCC(O)N1C2=O (stereo not drawn) [NSC285223] the “MEAN CpLDH INHIBITION (%)” value was -56.39%. For N=N/C(=C\c1c(O)[nH]c2ccccc12)c1ccccc1 [NSC175274], the “MEAN CpLDH INHIBITION (%)” value was -25.99%. For CC(=O)OC(C)(C)/C=C/C(=O)[C@](C)(O)[C@H]1[C@H](O)C[C@@]2(C)[C@@H]3CC=C4[C@@H](C[C@H](O)C(=O)C4(C)C)[C@]3(C)C(=O)C[C@]12C [NSC49451], the “MEAN CpLDH INHIBITION (%)” value was -57.10%. In the case of Cc1c(Cl)cccc1NC(=O)CC1Sc2ccccc2NC1=O (stereo not drawn) [NSC634396], the “MEAN CpLDH INHIBITION (%)” value was -17.78%. O=C1NC(c2cccc3ccccc23)Nc2ccc(Cl)cc21 (stereo not drawn) [NSC175636] was tested, and the “MEAN CpLDH INHIBITION (%)” value was -17.73%. CC1=C(N2CC2)C(=O)c2nc3n(c2C1=O)CCC3OC(=O)CCl (stereo not drawn) [NSC651080] was tested, and the “MEAN CpLDH INHIBITION (%)” value was -28.90%. In the case of COC(=O)[C@@]12OC[C@]34[C@H]([C@@H](O)[C@@H]1O)[C@@]1(C)CC(=O)C(O)=C(C)[C@@H]1C[C@H]3OC(=O)[C@H](OC(=O)/C=C(\C)C(C)C)[C@@H]24 [NSC165563], the “MEAN CpLDH INHIBITION (%)” value was -22.46%. In the case of O=[N+]([O-])c1cccc2nc3ccccc3c(NCCCNc3c4ccccc4nc4cccc([N+](=O)[O-])c34)c12 [NSC690634], the “MEAN CpLDH INHIBITION (%)” value was -61.23%. In the case of COc1ccc2nc(C)cc(NCCCCCCCCCNc3cc(C)nc4ccc(OC)cc34)c2c1 [NSC10010], the “MEAN CpLDH INHIBITION (%)” value was -19.54%. For O=C1C(Cl)=C(N2CCN(C3=C(Cl)C(=O)c4ccccc4C3=O)CC2)C(=O)c2ccccc21 [NSC40341], the “MEAN CpLDH INHIBITION (%)” value was -22.69%. C[N+](C)(C)CC1CCCC1=O.[I-] (stereo not drawn) [NSC621889] was tested, and the “MEAN CpLDH INHIBITION (%)” value was -0.31%. For C[C@@H]1C[C@H]2CC[C@H](O2)[C@H](C)C(=O)O[C@@H](C)C[C@@H]2CC[C@@H](O2)[C@@H](C)C(=O)O[C@H](C)C[C@H]2CC[C@H](O2)[C@H](C)C(=O)O[C@@H](C)C[C@@H]2CC[C@@H](O2)[C@@H](C)C(=O)O1 [NSC52141], the “MEAN CpLDH INHIBITION (%)” value was -100.84%. With C[Si](C)(CN)CN.[Cl][Pt][Cl] [NSC603577] the “MEAN CpLDH INHIBITION (%)” value was -0.38%. For C=Cc1cc(OC)c2c(c1)c(=O)oc1c2cc(OC)c2c(O)ccc(C3OC(C)C(O)C(C)(O)C3O)c21 (stereo not drawn) [NSC354844], the “MEAN CpLDH INHIBITION (%)” value was -68.14%. For CCCC(=O)[O-].[Na+] [NSC174280], the “MEAN CpLDH INHIBITION (%)” value was -5.75%. In the case of O=C1C(=O)c2ccccc2C(O)=C1CCCc1ccc(Oc2ccccc2)cc1 [NSC377], the “MEAN CpLDH INHIBITION (%)” value was -0.53%. For CC1(C)N=C(N)N=C(N)N1c1ccc(OCCCOc2ccccc2)c(Cl)c1.CCS(=O)(=O)O [NSC133071], the “MEAN CpLDH INHIBITION (%)” value was -57.79%. In the case of Cn1ncc2cc3c(Nc4ccc(Cl)cc4)cccc3nc21 [NSC622732], the “MEAN CpLDH INHIBITION (%)” value was -35.66%. For COc1cc([C@@H]2c3cc4c(c(O)c3C[C@H]3COC(=O)[C@@H]32)OCO4)cc(OC)c1OC [NSC24819], the “MEAN CpLDH INHIBITION (%)” value was -66.99%. For CCc1cccc(CC)c1NC(=O)C(C#N)C1=C(Cl)C(=O)c2ccccc2C1=O (stereo not drawn) [NSC634503], the “MEAN CpLDH INHIBITION (%)” value was -5.79%. In the case of CN(C)CCNC(=O)c1cccc2[nH]c(-c3ccncc3)nc12.Cl [NSC678932], the “MEAN CpLDH INHIBITION (%)” value was -5.91%. With O=C1N[C@H]2[C@H](O)[C@H](O)[C@@H](O)[C@H](O)[C@@H]2c2cc3c(c(O)c21)OCO3 [NSC349156] the “MEAN CpLDH INHIBITION (%)” value was -36.89%. For Cc1nc(-n2nc(-c3ccccc3)cc2-c2ccccc2)sc1C(=O)/C=C/c1ccc(Cl)c(Cl)c1 [NSC640584], the “MEAN CpLDH INHIBITION (%)” value was -6.68%. With CCCCCCCCCCCCCCCC[N+](C)(C)Cc1ccc(F)cc1.[Cl-] [NSC693172] the “MEAN CpLDH INHIBITION (%)” value was -0.60%. For COC1C(C)OC(OC2CC(C)(O)Cc3cc4c(c(O)c32)C(=O)c2c(O)cc3c(c2C4=O)OC2OC3(C)C(O)C(N(C)C)C2O)C(OC)C1(C)OC (stereo not drawn) [NSC265450], the “MEAN CpLDH INHIBITION (%)” value was -83.48%. With Cc1nc(Cl)c(C)c(Cl)n1 [NSC40212] the “MEAN CpLDH INHIBITION (%)” value was -35.86%. With C=C1C(=O)O[C@@H]2C[C@@H](C)[C@@H]3C=CC(=O)[C@@]3(C)[C@@H](O)[C@H]12 [NSC85236] the “MEAN CpLDH INHIBITION (%)” value was -30.32%. With O=S1(=O)OCCOS(=O)(=O)C1Cc1ccccc1 [NSC634863] the “MEAN CpLDH INHIBITION (%)” value was -18.12%.
